Target: HiBit-WIZ fusion protein (Homo sapiens, UniProt O95785+Q96SW2)
Test: Quantification of WIZ protein levels in HiBit tag fusion protein assay (WIZ HiBit assay in 293T cells)
Type: cell-based
Set-up: Dmax: dose or concentration left out as unconfirmed
Details: for Dmax / remaining activity at up to 25 µM: HEK-293T, 293T cells; for Dmax: 100 minus Amax, read-out: % degradation of WIZ (100-Amax); for remaining activity at up to 25 µM: DMSO-normalized, curve-fitted percentage of WIZ-HiBit remaining at 25 uM, read-out: WIZ Amax; for DC50: WIZ HiBit assay in 293T cells, 10-point, 5-fold dose response, highest concentration 25 μM, about 18 hours, read-out: WIZ AC50

Chain of HiBit-WIZ fusion protein (O95785 whole entry, the tested form may be a part): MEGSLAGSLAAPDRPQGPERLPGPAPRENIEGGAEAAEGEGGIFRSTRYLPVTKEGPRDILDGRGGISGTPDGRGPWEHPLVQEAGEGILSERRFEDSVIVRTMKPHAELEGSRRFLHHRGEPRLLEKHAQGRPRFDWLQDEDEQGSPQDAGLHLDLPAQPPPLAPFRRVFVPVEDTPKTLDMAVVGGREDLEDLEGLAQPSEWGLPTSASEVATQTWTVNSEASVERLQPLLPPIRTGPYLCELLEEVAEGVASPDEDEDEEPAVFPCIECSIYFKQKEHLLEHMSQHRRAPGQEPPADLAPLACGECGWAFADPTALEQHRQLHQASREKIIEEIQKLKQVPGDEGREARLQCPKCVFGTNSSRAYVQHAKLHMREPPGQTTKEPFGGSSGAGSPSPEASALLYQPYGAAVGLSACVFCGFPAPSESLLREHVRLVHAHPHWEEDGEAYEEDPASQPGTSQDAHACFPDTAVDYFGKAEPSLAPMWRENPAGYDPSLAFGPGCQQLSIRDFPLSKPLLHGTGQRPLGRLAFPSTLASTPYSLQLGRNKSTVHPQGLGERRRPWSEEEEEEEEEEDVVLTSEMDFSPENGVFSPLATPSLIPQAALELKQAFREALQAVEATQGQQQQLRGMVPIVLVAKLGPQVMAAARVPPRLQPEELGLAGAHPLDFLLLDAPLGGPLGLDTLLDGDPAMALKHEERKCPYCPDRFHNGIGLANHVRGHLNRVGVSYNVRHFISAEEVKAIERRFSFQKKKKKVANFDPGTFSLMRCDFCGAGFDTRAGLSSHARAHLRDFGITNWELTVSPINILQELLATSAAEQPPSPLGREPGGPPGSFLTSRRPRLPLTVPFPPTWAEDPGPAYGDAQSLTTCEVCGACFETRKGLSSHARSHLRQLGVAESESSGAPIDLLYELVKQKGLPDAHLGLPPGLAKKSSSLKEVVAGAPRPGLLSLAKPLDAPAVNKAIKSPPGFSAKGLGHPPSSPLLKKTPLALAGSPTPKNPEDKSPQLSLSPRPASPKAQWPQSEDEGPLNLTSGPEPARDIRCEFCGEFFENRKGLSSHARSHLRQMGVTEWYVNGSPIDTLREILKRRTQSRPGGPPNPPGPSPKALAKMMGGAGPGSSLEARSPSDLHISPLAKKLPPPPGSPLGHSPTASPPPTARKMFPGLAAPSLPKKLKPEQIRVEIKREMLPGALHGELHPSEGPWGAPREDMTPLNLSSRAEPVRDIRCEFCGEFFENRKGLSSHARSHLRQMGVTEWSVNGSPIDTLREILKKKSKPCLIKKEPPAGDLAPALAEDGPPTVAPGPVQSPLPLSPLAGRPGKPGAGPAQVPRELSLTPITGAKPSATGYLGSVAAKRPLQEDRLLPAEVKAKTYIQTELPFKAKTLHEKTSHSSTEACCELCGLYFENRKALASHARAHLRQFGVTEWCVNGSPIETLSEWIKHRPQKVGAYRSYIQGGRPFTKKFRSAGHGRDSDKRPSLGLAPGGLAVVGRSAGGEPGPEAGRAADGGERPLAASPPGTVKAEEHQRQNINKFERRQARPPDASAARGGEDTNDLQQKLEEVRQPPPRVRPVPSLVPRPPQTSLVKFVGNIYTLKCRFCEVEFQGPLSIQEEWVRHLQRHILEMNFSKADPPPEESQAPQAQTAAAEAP
Chain of HiBit-WIZ fusion protein (Q96SW2 whole entry, the tested form may be a part): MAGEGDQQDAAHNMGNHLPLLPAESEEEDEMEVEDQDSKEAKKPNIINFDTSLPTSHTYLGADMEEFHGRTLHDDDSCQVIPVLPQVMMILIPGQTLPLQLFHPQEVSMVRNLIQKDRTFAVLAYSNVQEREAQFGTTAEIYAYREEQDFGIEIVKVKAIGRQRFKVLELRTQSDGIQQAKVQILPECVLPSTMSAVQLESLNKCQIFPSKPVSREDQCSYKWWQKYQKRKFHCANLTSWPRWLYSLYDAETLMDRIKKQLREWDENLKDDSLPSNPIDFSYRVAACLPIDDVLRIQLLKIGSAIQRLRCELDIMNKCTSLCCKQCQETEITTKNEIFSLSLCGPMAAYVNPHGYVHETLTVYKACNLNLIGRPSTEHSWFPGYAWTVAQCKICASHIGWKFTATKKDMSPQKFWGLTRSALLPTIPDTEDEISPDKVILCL
Chain of HiBit-WIZ fusion protein (Q16531 whole entry partner, the tested form may be a part): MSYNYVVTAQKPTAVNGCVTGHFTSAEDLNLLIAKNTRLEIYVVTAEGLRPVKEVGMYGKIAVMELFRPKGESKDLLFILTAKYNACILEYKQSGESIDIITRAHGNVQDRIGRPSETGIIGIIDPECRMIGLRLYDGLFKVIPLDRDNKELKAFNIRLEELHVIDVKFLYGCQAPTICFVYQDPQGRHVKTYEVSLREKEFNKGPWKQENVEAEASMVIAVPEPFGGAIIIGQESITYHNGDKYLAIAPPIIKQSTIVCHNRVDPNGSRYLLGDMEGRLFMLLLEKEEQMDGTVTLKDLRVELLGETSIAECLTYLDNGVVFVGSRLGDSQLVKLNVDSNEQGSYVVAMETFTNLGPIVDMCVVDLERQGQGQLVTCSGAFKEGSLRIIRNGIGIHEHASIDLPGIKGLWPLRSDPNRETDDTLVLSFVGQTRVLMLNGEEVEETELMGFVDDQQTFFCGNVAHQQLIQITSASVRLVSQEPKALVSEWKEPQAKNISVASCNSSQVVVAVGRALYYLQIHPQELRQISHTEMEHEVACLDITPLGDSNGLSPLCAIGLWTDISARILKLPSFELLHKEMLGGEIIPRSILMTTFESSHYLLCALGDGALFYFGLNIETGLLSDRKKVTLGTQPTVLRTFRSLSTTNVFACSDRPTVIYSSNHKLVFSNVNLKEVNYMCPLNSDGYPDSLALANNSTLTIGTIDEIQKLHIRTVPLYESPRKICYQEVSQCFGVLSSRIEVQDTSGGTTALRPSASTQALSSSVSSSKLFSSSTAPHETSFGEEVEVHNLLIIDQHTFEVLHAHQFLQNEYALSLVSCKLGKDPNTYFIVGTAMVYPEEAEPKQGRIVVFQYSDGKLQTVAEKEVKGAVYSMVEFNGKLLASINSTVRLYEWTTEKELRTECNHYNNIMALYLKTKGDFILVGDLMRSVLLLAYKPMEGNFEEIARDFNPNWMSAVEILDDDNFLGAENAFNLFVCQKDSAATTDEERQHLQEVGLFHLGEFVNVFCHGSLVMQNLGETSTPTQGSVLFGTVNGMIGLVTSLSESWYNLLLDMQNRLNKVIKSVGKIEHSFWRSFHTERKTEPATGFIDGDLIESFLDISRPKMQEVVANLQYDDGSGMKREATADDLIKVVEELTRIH

O=C1CCC(N2Cc3cc(OC[C@@H]4CCCCN4C(=O)c4ccccc4Cn4cncn4)ccc3C2=O)C(=O)N1 (stereo partly drawn) [Compound I-72jx]
Dmax: 6.1%
remaining activity at up to 25 µM: 93.9%
DC50: > 25000 nM

CC(C)Oc1ccccc1C(=O)N1CCCC[C@H]1COc1ccc2c(c1)CN(C1CCC(=O)NC1=O)C2=O (stereo partly drawn) [Compound I-72jy]
Dmax: 11.3%
remaining activity at up to 25 µM: 88.7%
DC50: > 25000 nM

O=C1CCC(N2Cc3cc(OC[C@@H]4CCCCN4C(=O)c4ccnnc4)ccc3C2=O)C(=O)N1 (stereo partly drawn) [Compound I-72kc]
Dmax: 9.4%
remaining activity at up to 25 µM: 90.6%
DC50: > 25000 nM

O=C1CCC(N2Cc3cc(OC[C@@H]4CCCCN4C(=O)Cc4cscn4)ccc3C2=O)C(=O)N1 (stereo partly drawn) [Compound I-72m]
Dmax: 8.4%
remaining activity at up to 25 µM: 91.6%
DC50: > 25000 nM

Cc1nc(C(F)(F)F)ccc1C(=O)N1CCCC[C@H]1COc1ccc2c(c1)CN(C1CCC(=O)NC1=O)C2=O (stereo partly drawn) [Compound I-72n]
Dmax: 23.4%
remaining activity at up to 25 µM: 76.6%
DC50: > 25000 nM

CCc1noc(CC)c1C(=O)N1CCCC[C@H]1COc1ccc2c(c1)CN(C1CCC(=O)NC1=O)C2=O (stereo partly drawn) [Compound I-72s]
Dmax: 78.2%
remaining activity at up to 25 µM: 21.8%
DC50: 962 nM

CCCCCc1ccc(C(=O)N2CCCC[C@H]2COc2ccc3c(c2)CN(C2CCC(=O)NC2=O)C3=O)cc1 (stereo partly drawn) [Compound I-72t]
Dmax: 69.9%
remaining activity at up to 25 µM: 30.1%
DC50: 1470 nM

N#CCCN1CCN(CC(=O)N2CCCC[C@H]2COc2ccc3c(c2)CN(C2CCC(=O)NC2=O)C3=O)CC1 (stereo partly drawn) [Compound I-72x]
Dmax: 0%
remaining activity at up to 25 µM: 100%
DC50: > 25000 nM

N#CC1(c2cc(C(=O)N3CCCC[C@H]3COc3ccc4c(c3)CN(C3CCC(=O)NC3=O)C4=O)ccn2)CC1 (stereo partly drawn) [Compound I-72y]
Dmax: 2.9%
remaining activity at up to 25 µM: 97.1%
DC50: > 25000 nM

COc1ccccc1C(=O)N1CCC[C@@H]1COc1ccc2c(c1)CN(C1CCC(=O)NC1=O)C2=O (stereo partly drawn) [Compound I-83, 3-(5-(((R)-1-(2-methoxybenzoyl)pyrrolidin-2-yl)methoxy)-1-oxoisoindolin-2-yl)piperidine-2,6-dione]
Dmax: 16.8%
remaining activity at up to 25 µM: 83.2%
DC50: > 25000 nM

O=C1CCC(N2Cc3cc(OC[C@@H]4CC(F)(F)CN4)ccc3C2=O)C(=O)N1 (stereo partly drawn) [Compound I-84, 3-(5-(((S)-4,4-difluoropyrrolidin-2-yl)methoxy)-1-oxoisoindolin-2-yl)piperidine-2,6-dione]
Dmax: 21.2%
remaining activity at up to 25 µM: 78.8%
DC50: > 25000 nM

CO[C@H]1C[C@H](CN2CCCC[C@@H]2COc2ccc3c(c2)CN(C2CCC(=O)NC2=O)C3=O)C1 (stereo partly drawn) [Compound I-97, 3-(5-(((R)-1-(((1r,3R)-3-methoxycyclobutyl)methyl)piperidin-2-yl)methoxy)-1-oxoisoindolin-2-yl)piperidine-2,6-dione]
Dmax: 91.8%
remaining activity at up to 25 µM: 8.17%
DC50: 140 nM

O=C1CCC(N2Cc3cc(OC[C@H]4CCCCN4CC45CC(F)(C4)C5)ccc3C2=O)C(=O)N1 (stereo partly drawn) [Compound I-100, 3-(5-(((R)-1-((3-fluorobicyclo[1.1.1]pentan-1-yl)methyl)piperidin-2-yl)methoxy)-1-oxoisoindolin-2-yl)piperidine-2,6-dione]
Dmax: 82.2%
remaining activity at up to 25 µM: 17.8%
DC50: 410 nM

O=C1CCC(N2Cc3cc(OC[C@H]4CCCCN4Cc4ccccc4N4CCOCC4)ccc3C2=O)C(=O)N1 (stereo partly drawn) [Compound I-101]
Dmax: 96%
remaining activity at up to 25 µM: 3.95%
DC50: 72 nM

O=C1CCC(N2Cc3cc(OC[C@H]4CCCCN4Cc4ccc(N5CCN(CC6CC6)CC5)cc4)ccc3C2=O)C(=O)N1 (stereo partly drawn) [Compound I-102, 3-(5-(((R)-1-(4-(4-(cyclopropylmethyl)piperazin-1-yl)benzyl)piperidin-2-yl)methoxy)-1-oxoisoindolin-2-yl)piperidine-2,6-dione]
Dmax: 82.7%
remaining activity at up to 25 µM: 17.3%
DC50: 240 nM

O=C1CCC(N2Cc3cc(OC[C@H]4CCCCN4CC4CC5(COC5)C4)ccc3C2=O)C(=O)N1 (stereo partly drawn) [Compound I-104, 3-(5-(((R)-1-((2-oxaspiro[3.3]heptan-6-yl)methyl)piperidin-2-yl)methoxy)-1-oxoisoindolin-2-yl)piperidine-2,6-dione]
Dmax: 87.1%
remaining activity at up to 25 µM: 12.9%
DC50: 540 nM

CC(C)(C)OC(=O)N1CCN(c2ccccc2CN2CCCC[C@@H]2COc2ccc3c(c2)CN(C2CCC(=O)NC2=O)C3=O)CC1 (stereo partly drawn) [Compound I-105, Tert-butyl 4-(2-(((2R)-2-(((2-(2,6-dioxopiperidin-3-yl)-1-oxoisoindolin-5-yl)oxy)methyl)piperidin-1-yl)methyl)phenyl)piperazine-1-carboxylate]
Dmax: 94.8%
remaining activity at up to 25 µM: 5.23%
DC50: 55 nM

O=C1CCC(N2Cc3cc(OC[C@H]4CCCCN4Cc4ccccc4N4CCNCC4)ccc3C2=O)C(=O)N1 (stereo partly drawn) [Compound I-106, 3-(1-oxo-5-(((R)-1-(2-(piperazin-1-yl)benzyl)piperidin-2-yl)methoxy)isoindolin-2-yl)piperidine-2,6-dione]
Dmax: 80.1%
remaining activity at up to 25 µM: 19.9%
DC50: 2560 nM

CC(C)CN1CCN(c2ccccc2CN2CCCC[C@@H]2COc2ccc3c(c2)CN(C2CCC(=O)NC2=O)C3=O)CC1 (stereo partly drawn) [Compound I-107, 3-(5-(((R)-1-(2-(4-isobutylpiperazin-1-yl)benzyl)piperidin-2-yl)methoxy)-1-oxoisoindolin-2-yl)piperidine-2,6-dione]
Dmax: 99.8%
remaining activity at up to 25 µM: 0.21%
DC50: 16 nM

O=C1CCC(N2Cc3cc(OC[C@H]4CCCCN4Cc4ccccc4N4CCN(CC5CCOCC5)CC4)ccc3C2=O)C(=O)N1 (stereo partly drawn) [Compound I-108, 3-(1-oxo-5-(((R)-1-(2-(4-((tetrahydro-2H-pyran-4-yl)methyl)piperazin-1-yl)benzyl)piperidin-2-yl)methoxy)isoindolin-2-yl)piperidine-2,6-dione]
Dmax: 98.1%
remaining activity at up to 25 µM: 1.93%
DC50: 25 nM

O=C1CCC(N2Cc3cc(OC[C@H]4CCCCN4Cc4ccc(N5CCN(C6CCOCC6)CC5)cc4)ccc3C2=O)C(=O)N1 (stereo partly drawn) [Compound I-109, 3-(1-oxo-5-(((R)-1-(4-(4-(tetrahydro-2H-pyran-4-yl)piperazin-1-yl)benzyl)piperidin-2-yl)methoxy)isoindolin-2-yl)piperidine-2,6-dione]
Dmax: 70.1%
remaining activity at up to 25 µM: 29.9%
DC50: 1500 nM

CC(C)(C)OC(=O)N1CCc2cccc(CN3CCCC[C@@H]3COc3ccc4c(c3)CN(C3CCC(=O)NC3=O)C4=O)c21 (stereo partly drawn) [Compound I-110, Tert-butyl 7-(((2R)-2-(((2-(2,6-dioxopiperidin-3-yl)-1-oxoisoindolin-5-yl)oxy)methyl)piperidin-1-yl)methyl)indoline-1-carboxylate]
Dmax: 99.5%
remaining activity at up to 25 µM: 0.48%
DC50: 8.6 nM

O=C1CCC(N2Cc3cc(OC[C@H]4CCCCN4Cc4cccc5c4NCC5)ccc3C2=O)C(=O)N1 (stereo partly drawn) [Compound I-111, 3-(5-(((R)-1-(indolin-7-ylmethyl)piperidin-2-yl)methoxy)-1-oxoisoindolin-2-yl)piperidine-2,6-dione]
Dmax: 90.7%
remaining activity at up to 25 µM: 9.3%
DC50: 11 nM
